Square brackets hold non-standard residues; d marks the D form. Ends that are not written are not given here. * marks the point of attachment. Pentanoyl(4-Me) = CC(C)CCC(=O)*; Orn = NCCC[C@H](N)C(=O)O
Test: Food intake assay in overnight fasted mice
Assay type: in vivo
Details: 25 nmol/kg intraperitoneal
Description: Female NIH/Swiss mice (8-14 weeks old) were group housed with a 12:12 hour light:dark cycle. Water and a standard pelleted mouse chow diet are available ad libitum, except as noted. Animals are fasted starting at approximately 1500 hrs, 1 day prior to experiment.
The effects of treatment on food intake are expressed as % change relative to control.

Substance | cumulative food intake compared to vehicle, 30 min [%] | cumulative food intake compared to vehicle, 60 min [%] | cumulative food intake compared to vehicle, 120 min [%] | cumulative food intake compared to vehicle, 180 min [%]
KCNTSTCATQRLANELVRLQTYPRTNVGSNTY [Compound 53] | −92 | −89 | −36 | –
KCNTATCMLGRYTQDFHRLQTYPRTNTGSNTY [Compound 66] | −13 | −15 | −28 | –
KCNTATCVLGRLTEFLHRLQTYPRTNTGSNTY [Compound 103] | −50 | −44 | −30 | –
KCNTATCVLGKLSQELHKLQTYPRTNTGSNTY [Compound 49] | −33 | −26 | −25 | –
KCNTATCVLGRLSQELHRLQTYPRTNTGSKAF [Compound 93] | −43 | −30 | −27 | −29
KCNTATCVLGRLSQELH[Orn]LQTYPRTNTGSNTY (cysteine pairing not given here) [Compound 77] | −46 | −43 | −44 | –
KCNTATCVLGRLAAALHRLQTYPRTNTGSNTY [Compound 113] | −79 | −86 | −55 | –
CANLSTCVLGRLSQELHRLQTYPRTNTGSNTY [Compound 19] | −25 | −25 | −35 | −31
KCNTATCVLGRLADFLHRFQTFPRTNTGSGTP [Compound 109] | −61 | −54 | −43 | –
KCNTATCATQRLSQELHRLQTYPRTNTGSNTY [Compound 51] | −44 | −39 | −35 | –
KCNTATCVTHRLSQELHRLQTYPRTNTGSNTY [Compound 87] | −43 | −32 | −21 | –
KCNTASCVLGRLSQELHRLQTYPRTNTGSNTY [Compound 36] | −34 | −22 | −24 | −25
KCNTATCVLG(homoR)LSQELH(homoR)LQTYPRTNTGSNTY [Compound 74] | −42 | −32 | −31 | –
KCNTATCVLGRLAEFLHRLQTYPRTNTGSNTY [Compound 104] | −69 | −67 | −54 | –
KCNTATCVLGRLFDFLHRLQTYPRTNTGSNTY [Compound 112] | −62 | −65 | −50 | –
KCNTAVCVLGRLSQELHRLQTYPRTNTGSNTY [Compound 37] | −3 | −2 | −16 | –

Substance | cumulative food intake compared to vehicle, 30 min [%] | cumulative food intake compared to vehicle, 60 min [%] | cumulative food intake compared to vehicle, 120 min [%] | cumulative food intake compared to vehicle, 180 min [%]
KCDTATCVLGRLSQELHRLQTYPRTNTGSNTY [Compound 111] | −39 | −37 | −32 | –
KCNTATCVLGRLSQELHKLQTYPRTNTGSNTY [Compound 24] | −40 | −34 | −35 | −35
KCNTATCVLGRLSQELHRYPRTNTGSNTY [Compound 39] | 7 | −14 | −23 | –
DSNLSTKVLGRLSQELHRLQTYPRTNTGSNTY [Compound 68] | −10 | −13 | −21 | –
KCNTATCVLGRLSRSLHRLQTYPRTNTGSNTY [Compound 86] | −44 | −26 | −16 | –
KCNTATCVLGRLSQELHRLQTYPRTNTGSETF [Compound 91] | −59 | −47 | −26 | −24
CSNLATCVLGRLSQELHRLQTYPRTNTGSNTY [Compound 22] | −11 | −20 | −31 | −30
KCNTATCVLGRLAAFLHRLQTYPRTNTGSNTY [Compound 96] | −49 | −38 | −19 | −23
KCNTATCVLGRLSQELHRLQTVPRTNTGSNTY [Compound 100] | −60 | −52 | −41 | –
KCNTSTCVLGRLSQELHRLQTYPRTNTGSNTY [Compound 50] | −70 | −62 | −48 | –
KCNTATCVLG(homoK)LSQELH(homoK)LQTYPRTNTGSNTY [Compound 63] | −19 | −22 | −28 | –
KCNTATCVLGRLSQELHRLQTLLQTYPRTNTGSNTY [Compound 48] | −54 | −51 | −36 | –
KCNTATCVLGRLAQFLHRLQTYPRTNTGSNTY [Compound 106] | −58 | −54 | −39 | –
isocaproyl-STAVLGRLSQELHRLQTYPRTNTGSNTY ({Pentanoyl(4-Me)}-STAVLGRLSQELHRLQTYPRTNTGSNTY-NH2; SMILES CC(C)CCC(=O)N[C@@H](CO)C(=O)N[C@H](C(=O)N[C@@H](C)C(=O)N[C@H](C(=O)N[C@@H](CC(C)C)C(=O)NCC(=O)N[C@@H](CCCNC(=N)N)C(=O)N[C@@H](CC(C)C)C(=O)N[C@@H](CO)C(=O)N[C@@H](CCC(N)=O)C(=O)N[C@@H](CCC(=O)O)C(=O)N[C@@H](CC(C)C)C(=O)N[C@@H](Cc1c[nH]cn1)C(=O)N[C@@H](CCCNC(=N)N)C(=O)N[C@@H](CC(C)C)C(=O)N[C@@H](CCC(N)=O)C(=O)N[C@H](C(=O)N[C@@H](Cc1ccc(O)cc1)C(=O)N1CCC[C@H]1C(=O)N[C@@H](CCCNC(=N)N)C(=O)N[C@H](C(=O)N[C@@H](CC(N)=O)C(=O)N[C@H](C(=O)NCC(=O)N[C@@H](CO)C(=O)N[C@@H](CC(N)=O)C(=O)N[C@H](C(=O)N[C@@H](Cc1ccc(O)cc1)C(N)=O)[C@@H](C)O)[C@@H](C)O)[C@@H](C)O)[C@@H](C)O)C(C)C)[C@@H](C)O) [Compound 20] | −9 | −21 | −30 | −31
KCNTATCVLGRLNEYLHRLQTYPRTNTGSNTY [Compound 101] | −52 | −48 | −35 | –
ACDTATCVLGRLSQELHRLQTYPRTNTGSNTY [Compound 92] | −31 | −29 | −30 | −27

Source: US8598120B2 (Amylin Pharmaceuticals, LLC, priority 2004, dated 2013)
